Values belong to the compound of their own block, whether it stands above or below them.
Key:
Format in all cases: functional
[1] = Platelet shape change and aggregation induced by the compound at 10 uM concentration
[2] = Effect of compound on elevation of cAMP levels induced by 2 uM PGE1 at 10 uM
[3] = Effect of compound at 800 uM on platelet aggregation induced by 10 uM ADP
[4] = Inhibitory concentration of compound on platelet aggregation
[5] = Effect of compound at 1 uM on platelet aggregation induced by 10 uM ADP
[6] = Effect of compound at 10 uM on platelet aggregation induced by 10 uM ADP
[7] = Effect of compound at 100 uM on platelet aggregation induced by 10 uM ADP
[8] = Inhibitory effect of ADP (10 uM) on PGE1 (2 uM)-induced increase in platelet cAMP levels at 100 uM concentration of compound
[9] = Inhibitory effect of ADP (10 uM) on PGE1 (2 uM)-induced increase in platelet cAMP levels at 800 uM concentration of compound
[10] = Inhibitory effect of ADP (10 uM) on PGE1 (2 uM)-induced increase in platelet cAMP levels at 10 uM concentration of compound
[11] = Inhibitory effect of ADP (10 uM) on PGE1 (2 uM)-induced increase in platelet cAMP levels at 1 uM concentration of compound
[12] = Platelet shape change and aggregation induced by the compound at 1 uM concentration
[13] = Platelet shape change and aggregation induced by the compound at 100 uM concentration
[14] = Effect of compound on elevation of cAMP levels induced by 2 uM PGE1 at 1 uM
[15] = Effect of compound on elevation of cAMP levels induced by 2 uM PGE1 at 100 uM

SMILES: Nc1ncnc2c1ncn2[C@@H]1O[C@H](COP(=O)(O)OP(=O)(O)O)[C@@H](O)[C@H]1O [ADENOSINE DIPHOSPHATE]
Light transmission [1]: 53%
Activity [2]: 34

SMILES: CCCCC#Cc1nc(N)c2ncn(C3O[C@H](COP(=O)(O)OP(=O)(O)O)[C@@H](O)[C@H]3O)c2n1 (stereo partly specified)
Light transmission [12]: 0%
Light transmission [1]: 17%
Light transmission [13]: 41%
Activity [14]: 58
Activity [2]: 50
Activity [15]: 38
Activity [5]: 98
Activity [6]: 99
Activity [7]: 100

SMILES: CCCCC#Cc1nc(N)c2ncn(C3O[C@H](COP(=O)(O)OP(=O)(O)OP(=O)(O)O)[C@@H](O)[C@H]3O)c2n1 (stereo partly specified)
Light transmission [12]: 0%
Light transmission [1]: 9%
Light transmission [13]: 39%
Activity [14]: 59
Activity [2]: 35
Activity [15]: 27
Activity [5]: 92
Activity [6]: 90
Activity [7]: 64

SMILES: CCCCC#Cc1nc(N)c2ncn(C3O[C@H](COP(=O)(O)O)[C@@H](O)[C@H]3O)c2n1 (stereo partly specified)
Activity [3]: 0
IC50 [4]: 14 µM
Activity [5]: 75.2
Activity [6]: 54.4
Activity [7]: 11.8
Inhibition [8]: 13.6%
Inhibition [9]: 58.2%
Inhibition [10]: 9.6%
Inhibition [11]: 6.7%

SMILES: Nc1nc(C#Cc2ccccc2)nc2c1ncn2C1O[C@H](COP(=O)(O)O)[C@@H](O)[C@H]1O (stereo partly specified)
Activity [3]: 0.2
IC50 [4]: 130 µM
Activity [5]: 86
Activity [6]: 92.8
Activity [7]: 58.4
Inhibition [8]: 14.9%
Inhibition [9]: 74.4%
Inhibition [10]: 4.1%
Inhibition [11]: 4.6%

Second part, led by results:

IC50 [4]: 60 µM
SMILES: Nc1nc(C#Cc2ccccc2)nc2c1ncn2C1O[C@H](COP(=O)(O)OP(=O)(O)O)[C@@H](O)[C@H]1O (stereo partly specified)
Activity [3]: 9.5
Activity [5]: 81.5
Activity [6]: 77.4
Activity [7]: 43.2
Inhibition [8]: 4.1%
Inhibition [9]: 29.5%
Inhibition [10]: 2.6%
Inhibition [11]: 1%

IC50 [4]: 85 µM
SMILES: Nc1nc(C#Cc2ccccc2)nc2c1ncn2[C@@H]1O[C@H](COP(=O)(O)OP(=O)(O)OP(=O)(O)O)[C@@H](O)[C@H]1O
Activity [3]: 0.2
Activity [5]: 81
Activity [6]: 81.6
Activity [7]: 46.6
Inhibition [8]: 5.7%
Inhibition [9]: 68.9%
Inhibition [10]: 1.6%
Inhibition [11]: 1.6%

Reference: ChEMBL document CHEMBL1143589, “Effects of 5'-phosphate derivatives of 2-hexynyl adenosine and 2-phenylethynyl adenosine on responses of human platelets mediated by P2Y receptors” (J Med Chem, 2005)
